Patent US20240308998A1, “PYRROLOPYRIDONE DERIVATIVES USEFUL IN THE TREATMENT OF CANCER” (Tay Therapeutics Limited, priority 2021, published 2024)

What was measured:
[1] = Intrinsic clearance in mouse liver microsomes; assay type: in vitro ADME; conditions: 1 uM, NADPH
Protocol: A 50 mM stock solution (in DMSO) was prepared for the compound. From the stock solution, a working solution of 0.5 mM was prepared by diluting the compound in DMSO. This concentration of working solution was prepared considering a final concentration of 1 uM with 0.1% DMSO. The compound (1 uL of working solution) was spiked in PBS with pH 7.4 (22 uL) at a concentration of 1 uM. Subsequently, 110 uL of 10 mM NADPH was added (as a co-factor). The sample was incubated at 37° C. for 15 min. Following this, pre-warmed mouse liver microsomes (27.5 uL; final protein conc. 0.5 mg/mL) were added. The samples were then incubated at 37° C. Aliquots of samples were withdrawn at 0, 5, 15, 30, 45 and 60 min. The reaction was stopped by using chilled acetonitrile containing internal standard. The samples were centrifuged and the supernatants analysed by LC-MS/MS. The percent compound remaining at each time point was calculated with respect to that of the 0 min sample. The data were then analysed to calculate half-life and intrinsic clearance (CLint). Note that control samples were run without NADPH and blank samples were prepared using DMSO without the test compound.

BRD4 BD2 = target: T1, BRD4 BD2 (Homo sapiens, UniProt O60885); assay: NanoBRET bromodomain assay, BRD4 BD2; assay type: cell-based
T1 construct: HEK293 cells were transfected using NanoLuc-BRD4-BD1 or NanoLuc-BRD4-BD2 fusion vectors; host or cells: HEK293
Method in brief: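 HEK293 cells transfected with NanoLuc-BRD4-BD2 fusion for 20-24 h, then treated with compound plus 1x tracer for 2 h at 37° C. Donor 450 nm / acceptor 610 nm emissions converted to background-corrected mBU; IC50 by nonlinear regression; selectivity as IC50 BD1/IC50 BD2.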

Mouse plasma stability = assay type: in vitro ADME; conditions: 10 μM in mouse plasma, 37° C.
Protocol: The stock solution of compound (10 or 50 mM) was prepared in DMSO. From the stock solution, a working solution of compound (500 uM) was prepared in DMSO (100%). To 735 μL of mouse plasma, 15 μL of working solution of compound was added—resulting in a final concentration of 10 μM (2% DMSO) for the compound. The sample was then incubated at 37° C. Aliquot was withdrawn at time-points—0, 15, 30, 60, 90 and 120 mins. The reaction was stopped by using chilled acetonitrile containing internal standard (IS). The samples were centrifuged and the supernatants analyzed using LC-MS/MS. The percent remaining of the compound at each time point was calculated with respect to the control sample (0 min time-point).

BRD4 BD1 = target: T2, BRD4 BD1 (Homo sapiens, UniProt O60885); assay: NanoBRET bromodomain assay, BRD4 BD1; assay type: cell-based; conditions: HEK293 cells transfected with NanoLuc-BRD4-BD1
T2 construct: HEK293 cells were transfected using NanoLuc-BRD4-BD1 or NanoLuc-BRD4-BD2 fusion vectors; host or cells: HEK293
Method in brief: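 Transfected HEK293 cells expressing NanoLuc-BRD4-BD1 were incubated with 1x tracer and serially diluted compound for 2 h at 37 °C, then given Nano-Glo substrate plus extracellular NanoLuc inhibitor. Donor 450 nm and acceptor 610 nm emissions were converted to background-corrected mBU, and IC50 was derived by nonlinear regression.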

SMILES: Cc1cnc(-c2cc3c(-c4cc(=O)n(C)cc4Oc4c(C)cccc4C)cn(C)c(=O)c3[nH]2)[nH]1 [Example 1, 4-(5-(2,6-dimethylphenoxy)-1-methyl-2-oxo-1,2-dihydropyridin-4-yl)-6-methyl-2-(5-methyl-1H-imidazol-2-yl)-1,6-dihydro-7H-pyrrolo [2,3-c] pyridin-7-one]
- Mouse Microsomal Stability (intrinsic clearance) [1]: 0.7 ml/min/g liver
- Fold selectivity BRD4 BD1/BD2 (BRD4 BD2; IC50 BD1/IC50 BD2): xxx (Fold >200)
- IC50 (BRD4 BD2; NanoBRET, HEK293 cells transfected with NanoLuc-BRD4-BD2): ≤ 0.05 µM
- Mouse Plasma Stability % remaining at 120 minutes (Mouse plasma stability): 95%
- IC50 (BRD4 BD1): > 1 µM
